ChEMBL document CHEMBL1125947, “Triply-convergent syntheses of two homochiral arene-fused prostacyclin analogs related to U68,215” (Bioorg Med Chem Lett, 1991)
pIC50: −log10 of the molar value.

Organism: Homo sapiens
Experiment: Compound was tested for inhibitory activity against collagen induced platelet aggregation
Type: functional

| pIC50 | SMILES |
| --- | --- |
| 8.54 | O=C(O)COc1cccc2c1C[C@H]1C[C@@H](O)[C@H](C#C[C@@H](O)C3CCCCC3)[C@H]1C2 |
| 7.28 | O=C(O)COc1cccc2c1C[C@H]1C[C@@H](O)[C@H](C#C[C@@H](O)C3CCCCC3)[C@@H]1C2 |
